In the experiment the test system is senescent IMR90 ER:RAS cells (4-OHT-induced). Nature of the experiment: Nuclei count (Hoechst, high content imaging) senolytic assay, oncogene-induced senescence (OIS) model, senescent cells. It is filed as cell-based, human. The settings on record: for viability at 10 µM / viability at 4.677 µM / viability at 2.188 µM / viability at 1 µM / viability at 0.4677 µM / viability at 0.2188 µM / viability at 0.1 µM / viability at 0.04677 µM / viability at 0.02188 µM / viability at 0.01 µM: Homo sapiens. In short, it runs like this:
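IMR90 ER:RAS (p14), ±4-OHT 100 nM; cpd 10 nM–10 μM, 10-pt […], 72 h, n=3. Fix formaldehyde, Triton X-100, Hoechst 2 μg/ml final. Readout: imaged nuclei count vs untreated; ouabain positive control.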

Where [1] appears, read: IMR-90, 72 h, Senescent, log (dose) [M] -5, 72 h, mean n=3 (Fig 3C), read-out: Mean % Cell Survival.
Where [2] appears, read: IMR-90, 72 h, Senescent, log (dose) [M] -5.33, 72 h, mean n=3 (Fig 3C), read-out: Mean % Cell Survival.
[3] abbreviates: IMR-90, 72 h, Senescent, log (dose) [M] -5.66, 72 h, mean n=3 (Fig 3C), read-out: Mean % Cell Survival.
[4] abbreviates: IMR-90, 72 h, Senescent, log (dose) [M] -6, 72 h, mean n=3 (Fig 3C), read-out: Mean % Cell Survival.
Where [5] appears, read: IMR-90, 72 h, Senescent, log (dose) [M] -6.33, 72 h, mean n=3 (Fig 3C), read-out: Mean % Cell Survival.
Setting [6] is: IMR-90, 72 h, Senescent, log (dose) [M] -6.66, 72 h, mean n=3 (Fig 3C), read-out: Mean % Cell Survival.
[7] abbreviates: IMR-90, 72 h, Senescent, log (dose) [M] -7, 72 h, mean n=3 (Fig 3C), read-out: Mean % Cell Survival.
Where [8] appears, read: IMR-90, 72 h, Senescent, log (dose) [M] -7.33, 72 h, mean n=3 (Fig 3C), read-out: Mean % Cell Survival.
Setting [9] is: IMR-90, 72 h, Senescent, log (dose) [M] -7.66, 72 h, mean n=3 (Fig 3C), read-out: Mean % Cell Survival.
[10] abbreviates: IMR-90, 72 h, Senescent, log (dose) [M] -8, 72 h, mean n=3 (Fig 3C), read-out: Mean % Cell Survival.
Where [11] appears, read: IMR-90, Senescent cells, log (dose) [M] -5, individual replicates, SUP FIG 4C, read-out: % Cell Survival.
Setting [12] is: IMR-90, Senescent cells, log (dose) [M] -5.33, individual replicates, SUP FIG 4C, read-out: % Cell Survival.
The mark [13] stands for this setting: IMR-90, Senescent cells, log (dose) [M] -6.66, individual replicates, SUP FIG 4C, read-out: % Cell Survival.
Where [14] appears, read: IMR-90, Senescent cells, log (dose) [M] -7, individual replicates, SUP FIG 4C, read-out: % Cell Survival.
[15] abbreviates: IMR-90, Senescent cells, log (dose) [M] -7.33, individual replicates, SUP FIG 4C, read-out: % Cell Survival.
The mark [16] stands for this setting: IMR-90, Senescent cells, log (dose) [M] -7.66, individual replicates, SUP FIG 4C, read-out: % Cell Survival.
Where [17] appears, read: IMR-90, Senescent cells, log (dose) [M] -8, individual replicates, SUP FIG 4C, read-out: % Cell Survival.
Where [18] appears, read: IMR-90, Senescent cells, log (dose) [M] -5.66, individual replicates, SUP FIG 4C, read-out: % Cell Survival.
Setting [19] is: IMR-90, Senescent, log (dose) [M] -8, read-out: % Cell Survival.

Counter-ions that a name gives are not always drawn. Like-named read-outs stand apart in the source and are kept apart here.

In the case of `CO[C@H]1C[C@@H]2CC[C@@H](C)[C@@](O)(O2)C(=O)C(=O)N2CCCC[C@H]2C(=O)O[C@H]([C@H](C)C[C@@H]2CC[C@@H](O)[C@H](OC)C2)CC(=O)[C@H](C)/C=C(\C)[C@@H](O)[C@@H](OC)C(=O)[C@H](C)C[C@H](C)/C=C/C=C/C=C/1C` [Rapamycin, rapamycin, reference compound], the viability at 10 µM is, setting by setting: under setting [1], 98.4%; under setting [11], 94.1%. Further, the viability at 4.677 µM is, setting by setting: under setting [2], 103%; under setting [12], 113%. Under setting [3], the viability at 2.188 µM stood at 114%. Further, the viability at 1 µM under setting [4] came out at 90.6%. The viability at 0.4677 µM under setting [5] worked out at 101%. The viability at 0.2188 µM under setting [6] was found to be 97.8% and the viability at 0.2188 µM under setting [13] worked out at 104%. Besides, the viability at 0.1 µM reads like this: under setting [7], 92.6%; under setting [14], 95.9%. Moreover, the viability at 0.04677 µM runs as follows: under setting [8], 105%; under setting [15], 107%. Also, the viability at 0.02188 µM runs as follows: under setting [9], 93.9%; under setting [16], 102%. For the same compound, the viability at 0.01 µM under setting [10] stood at 92% and the viability at 0.01 µM under setting [17] was 88.4%.
For `CO[C@H]1C[C@@H]2CC[C@@H](C)[C@@](O)(O2)C(=O)C(=O)N2CCCC[C@H]2C(=O)O[C@H]([C@H](C)C[C@@H]2CC[C@@H](OP(C)(C)=O)[C@H](OC)C2)CC(=O)[C@H](C)/C=C(\C)[C@@H](O)[C@@H](OC)C(=O)[C@H](C)C[C@H](C)/C=C/C=C/C=C/1C` [Ridaforolimus, ridaforolimus, reference compound], under setting [1], the viability at 10 µM is 122%. In addition, the viability at 4.677 µM under setting [2] came out at 144%. In addition, the viability at 2.188 µM is, setting by setting: under setting [3], 164%; under setting [18], 166%. In addition, under setting [4], the viability at 1 µM was 156%. Moreover, under setting [5], the viability at 0.4677 µM was found to be 160%. For the same compound, under setting [6], the viability at 0.2188 µM is 156%. For the same compound, the viability at 0.1 µM under setting [7] was 126%. Also, the viability at 0.04677 µM under setting [8] amounted to 128%. Moreover, the viability at 0.02188 µM turned out to be 131% under setting [9]; 129% under setting [16]; 81.7% (IMR-90, Senescent, log (dose) [M] -7.66, read-out: % Cell Survival). For the same compound, the viability at 0.01 µM runs as follows: under setting [10], 105%; under setting [19], 78.7%.
Regarding `O=c1cc(-c2ccc(O)cc2)oc2cc(O)c(O)c(O)c12` [Scutellarein, scutellarein], under setting [1], the viability at 10 µM was determined as 124%. For the same compound, the viability at 4.677 µM is, setting by setting: under setting [2], 124%; under setting [12], 129%. For the same compound, the viability at 2.188 µM under setting [3] amounted to 132%. Further, the viability at 1 µM under setting [4] was 124%. Moreover, the viability at 0.4677 µM under setting [5] was 137%. Moreover, the viability at 0.2188 µM under setting [6] stood at 132% and the viability at 0.2188 µM (IMR-90, Senescent, log (dose) [M] -6.66, read-out: % Cell Survival) came to 97.8%. Also, the viability at 0.1 µM under setting [7] is 115%. The viability at 0.04677 µM reads like this: under setting [8], 122%; (IMR-90, Senescent, log (dose) [M] -7.33, read-out: % Cell Survival) 91.2%. Moreover, the viability at 0.02188 µM under setting [9] is 106%. The viability at 0.01 µM was 100% under setting [10] and 100% under setting [19].
With `C[C@H](CCC(=O)NCCS(=O)(=O)O)[C@H]1CC[C@H]2[C@@H]3[C@H](O)C[C@@H]4C[C@H](O)CC[C@]4(C)[C@H]3C[C@H](O)[C@]12C` [Taurocholic acid sodium, taurocholic acid sodium salt hydrate], the viability at 10 µM (IMR-90, 72 h, read-out: Mean % Cell Survival, Senescent, log (dose) [M] -5, 72 h, mean n=3 (Fig 3C)) was 110%. Also, the viability at 4.677 µM (IMR-90, 72 h, read-out: Mean % Cell Survival, Senescent, log (dose) [M] -5.33, 72 h, mean n=3 (Fig 3C)) turned out to be 132% and the viability at 4.677 µM (IMR-90, read-out: % Cell Survival, Senescent, log (dose) [M] -5.33) was 118%. Further, the viability at 2.188 µM (IMR-90, 72 h, read-out: Mean % Cell Survival, Senescent, log (dose) [M] -5.66, 72 h, mean n=3 (Fig 3C)) turned out to be 115%. For the setting “IMR-90, 72 h, read-out: Mean % Cell Survival, Senescent, log (dose) [M] -6, 72 h, mean n=3 (Fig 3C)”, the viability at 1 µM was 123%. The viability at 0.4677 µM (IMR-90, 72 h, read-out: Mean % Cell Survival, Senescent, log (dose) [M] -6.33, 72 h, mean n=3 (Fig 3C)) amounted to 106%. Further, the viability at 0.2188 µM (IMR-90, 72 h, read-out: Mean % Cell Survival, Senescent, log (dose) [M] -6.66, 72 h, mean n=3 (Fig 3C)) came to 99.8% and the viability at 0.2188 µM (IMR-90, read-out: % Cell Survival, Senescent cells, log (dose) [M] -6.66, individual replicates, SUP FIG 4C) is 105%. Further, the viability at 0.1 µM turned out to be 96.6% (IMR-90, 72 h, read-out: Mean % Cell Survival, Senescent, log (dose) [M] -7, 72 h, mean n=3 (Fig 3C)) and 101% (IMR-90, read-out: % Cell Survival, Senescent cells, log (dose) [M] -7, individual replicates, SUP FIG 4C). Moreover, the viability at 0.04677 µM (IMR-90, 72 h, read-out: Mean % Cell Survival, Senescent, log (dose) [M] -7.33, 72 h, mean n=3 (Fig 3C)) is 108%. For the same compound, the viability at 0.02188 µM (IMR-90, 72 h, read-out: Mean % Cell Survival, Senescent, log (dose) [M] -7.66, 72 h, mean n=3 (Fig 3C)) was 112%. Besides, the viability at 0.01 µM (IMR-90, 72 h, read-out: Mean % Cell Survival, Senescent, log (dose) [M] -8, 72 h, mean n=3 (Fig 3C)) was 107%. Also, under “experimental screen, OIS IMR90 ER:RAS”, the “senolytic activity (in words)” value is “inactive”.
Turning to `COC[C@H]1C[C@@H](c2nc(-c3ccc4c(c3)COc3cc5c(ccc6nc([C@@H]7CC[C@H](C)N7C(=O)[C@@H](NC(=O)OC)C(C)C)[nH]c65)cc3-4)c[nH]2)N(C(=O)[C@H](NC(=O)OC)c2ccccc2)C1` [Velpatasvir, velpatasvir, reference compound], the viability at 10 µM under setting [1] was determined as 97.8% and the viability at 10 µM under setting [11] is 100%. For the same compound, the viability at 4.677 µM under setting [2] is 116%. Besides, the viability at 2.188 µM is, setting by setting: under setting [3], 102%; under setting [18], 111%. Besides, the viability at 1 µM was determined as 112% under setting [4] and 108% (IMR-90, Senescent cells, log (dose) [M] -6, individual replicates, SUP FIG 4C, read-out: % Cell Survival). Moreover, the viability at 0.4677 µM under setting [5] was determined as 78.2%. Also, the viability at 0.2188 µM reads like this: under setting [6], 83.6%; under setting [13], 90.3%. Further, the viability at 0.1 µM runs as follows: under setting [7], 88.6%; under setting [14], 89%. Moreover, the viability at 0.04677 µM under setting [8] worked out at 91.5% and the viability at 0.04677 µM under setting [15] was 85.1%. In addition, the viability at 0.02188 µM reads like this: under setting [9], 108%; under setting [16], 103%. Further, the viability at 0.01 µM came to 100% under setting [10] and 94.1% under setting [17].

The values are drawn from publication PMC10257182, “Discovery of senolytics using machine learning” (Nature Communications, 2023).
